Measured values taken from ChEMBL document CHEMBL4813953, “Kinetics-Driven Drug Design Strategy for Next-Generation Acetylcholinesterase Inhibitors to Clinical Candidate” (J Med Chem, 2021).
Calls of active or inactive are those of the source. The rule behind the calls is not given here.

Biological target: T1, Acetylcholinesterase (Rattus norvegicus, UniProt P37136)
T1 sequence (P37136 whole entry): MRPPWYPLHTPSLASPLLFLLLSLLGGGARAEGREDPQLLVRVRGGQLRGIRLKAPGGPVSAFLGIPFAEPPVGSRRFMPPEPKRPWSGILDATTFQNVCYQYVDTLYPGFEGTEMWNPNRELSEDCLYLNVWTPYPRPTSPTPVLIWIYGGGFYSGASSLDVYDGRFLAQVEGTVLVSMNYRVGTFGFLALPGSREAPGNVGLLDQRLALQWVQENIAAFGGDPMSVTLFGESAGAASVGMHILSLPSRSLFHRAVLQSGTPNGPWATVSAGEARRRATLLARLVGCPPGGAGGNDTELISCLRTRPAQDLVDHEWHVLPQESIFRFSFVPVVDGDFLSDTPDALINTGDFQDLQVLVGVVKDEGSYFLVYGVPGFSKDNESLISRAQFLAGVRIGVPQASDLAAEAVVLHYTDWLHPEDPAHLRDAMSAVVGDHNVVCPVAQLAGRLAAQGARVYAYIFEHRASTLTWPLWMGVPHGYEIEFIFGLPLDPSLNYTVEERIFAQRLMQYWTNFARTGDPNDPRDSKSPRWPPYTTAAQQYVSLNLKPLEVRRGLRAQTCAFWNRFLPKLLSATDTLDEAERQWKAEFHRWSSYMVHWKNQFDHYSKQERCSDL
Experiment: Inhibition of rat cortex homogenate acetylcholinesterase using acetylthiocholine iodide as substrate incubated for 20 mins by Ellman's method
Format: tissue-based
Details: not given
Molecule COc1cc2c(cc1OC)C(=O)C(CC1(F)CCN(CCc3ccc(F)cc3)CC1)C2 (stereo not given) has an IC50 of 404 nM. Work on COc1cc2c(cc1F)C(=O)C(CC1(F)CCN(Cc3cccc(F)c3)CC1)C2 (stereo not given) yielded an IC50 of 3.71 nM. Work on CCCCOc1cc2c(cc1OCCCC)C(=O)C(CC1(F)CCN(Cc3cccc(F)c3)CC1)C2 (stereo not given) yielded an IC50 of 646 nM. For COc1ccc2c(c1)C(=O)C(CC1(F)CCN(Cc3ccc(F)cc3)CC1)C2 (stereo not given), the IC50 was 260 nM. For COc1ccc2c(c1)CC(CC1(F)CCN(Cc3cccc(F)c3)CC1)C2=O (stereo not given), the IC50 was 14.1 nM. COc1cc2c(cc1OCC1CC1)C(=O)C(CC1(F)CCN(Cc3ccc(F)cc3F)CC1)C2 (stereo not given) gave an IC50 of 4.59 nM. CCCOc1cc2c(cc1OCCC)C(=O)C(CC1(F)CCN(Cc3ccccc3F)CC1)C2 (stereo not given) showed an IC50 of 66.7 nM. For CCCOc1cc2c(cc1OC)CC(CC1(F)CCN(Cc3ccc(F)cc3)CC1)C2=O (stereo not given), the IC50 was 18.3 nM. For COc1cc2c(cc1OC)C(=O)C(CC1(F)CCN(CCc3cccc(F)c3)CC1)C2 (stereo not given), the IC50 was 59 nM. Molecule COc1cc2c(cc1OC)C(=O)C(CC1(F)CCN(Cc3cc(F)cc(F)c3)CC1)C2 (stereo not given) has an IC50 of 226 nM. COc1cc2c(cc1OC)C(=O)C(CC1(F)CCN(Cc3ccc(F)cc3F)CC1)C2 (stereo not given) showed an IC50 of 8.33 nM. Molecule COc1cc2c(cc1OC)C(=O)C(CC1(F)CCN(Cc3cccc(C(F)(F)F)c3)CC1)C2 (stereo not given) has an IC50 of 348 nM. For COc1cc2c(cc1F)C(=O)C(CC1(F)CCN(Cc3ccccc3F)CC1)C2 (stereo not given), the IC50 was 3.52 nM. COc1cc2c(cc1OC)C(=O)C(CC1(F)CCN(Cc3ccccc3C(F)(F)F)CC1)C2 (stereo not given) showed an IC50 of 1640 nM. COc1ccc2c(c1)C(=O)C(CC1(F)CCN(Cc3ccccc3F)CC1)C2 (stereo not given) gave an IC50 of 60.5 nM. In the case of COc1cc2c(cc1F)CC(CC1(F)CCN(Cc3cccc(F)c3)CC1)C2=O (stereo not given), the IC50 is reported as 44.9 nM. In the case of COc1cc2c(cc1OC)C(=O)C(CC1(F)CCN(Cc3cccc(C)c3)CC1)C2 (stereo not given), the IC50 is reported as 11.7 nM. Work on COc1cc2c(cc1F)C(=O)C(CC1(F)CCN(Cc3ccc(F)cc3)CC1)C2 (stereo not given) yielded an IC50 of 3.44 nM. With COc1cc2c(cc1OC)C(=O)C(CC1(F)CCN(Cc3cccc(F)c3)CC1)C2 (stereo not given) the IC50 was 3 nM. Work on COc1cc2c(cc1OCC1CC1)C(=O)C(CC1(F)CCN(Cc3cccc(F)c3)CC1)C2 (stereo not given) yielded an IC50 of 5.87 nM. COc1cc2c(cc1OCC1CC1)C(=O)C(CC1(F)CCN(Cc3ccc(F)cc3)CC1)C2 (stereo not given) gave an IC50 of 5.39 nM. For CCCOc1cc2c(cc1OCCC)C(=O)C(CC1(F)CCN(Cc3cccc(F)c3)CC1)C2 (stereo not given), the IC50 was 176 nM. In the case of COc1cc2c(cc1F)CC(CC1(F)CCN(Cc3ccccc3F)CC1)C2=O (stereo not given), the IC50 is reported as 22.5 nM. Work on COc1cc2c(cc1F)CC(CC1(F)CCN(Cc3ccc(F)cc3)CC1)C2=O (stereo not given) yielded an IC50 of 28.3 nM. Work on CCCCOc1cc2c(cc1OCCCC)C(=O)C(CC1(F)CCN(Cc3ccccc3F)CC1)C2 (stereo not given) yielded an IC50 of 181 nM. With COc1ccc2c(c1)CC(CC1(F)CCN(Cc3ccccc3F)CC1)C2=O (stereo not given) the IC50 was 6.29 nM. Molecule COc1cc2c(cc1OC)C(=O)C(CC1(F)CCN(Cc3ccc(F)c(F)c3F)CC1)C2 (stereo not given) has an IC50 of 75.7 nM. COc1cc2c(cc1OC)C(=O)C(CC1(F)CCN(Cc3ccccc3C#N)CC1)C2 (stereo not given) gave an IC50 of 163 nM. COc1cc2c(cc1OC)C(=O)C(CC1(F)CCN(Cc3cccc(C#N)c3)CC1)C2 (stereo not given) gave an IC50 of 67.3 nM. CCCOc1cc2c(cc1OC)CC(CC1(F)CCN(Cc3ccccc3F)CC1)C2=O (stereo not given) gave an IC50 of 25.3 nM. For COc1cc2c(cc1OC)C(=O)C(CC1(F)CCN(Cc3cc(F)cc(F)c3F)CC1)C2 (stereo not given), the IC50 was 306 nM.

Biological target: T2, Acetylcholinesterase (Rattus norvegicus) (UniProt P37136)
T2 sequence (whole entry): T1 sequence (P37136 whole entry)
Experiment: Inhibition of rat cortex homogenate acetylcholinesterase at 40 uM using acetylthiocholine iodide as substrate incubated for 20 mins by Ellman's method relative to control
Format: tissue-based
Details: not given
COc1cc2c(cc1OC)C(=O)C(CC1(F)CCN(Cc3ccc(C(F)(F)F)cc3)CC1)C2 (stereo not given) showed an inhibition of 75.3%. COc1cc2c(cc1OC)C(=O)C(CC1(F)CCN(Cc3ccc(OC(F)(F)F)cc3)CC1)C2 (stereo not given) gave an inhibition of 51.7%. For COc1cc2c(cc1OCC1CC1)C(=O)C(CC1(F)CCN(Cc3ccccc3F)CC1)C2 (stereo not given), the inhibition was 8.4%. COc1cc2c(cc1OC)C(=O)C(CC1(F)CCN(CCc3ccccc3F)CC1)C2 (stereo not given) showed an inhibition of 74.7%. COc1cc2c(cc1OC)C(=O)C(CC1(F)CCN(Cc3ccc(C(C)(C)C)cc3)CC1)C2 (stereo not given) showed an inhibition of 69.1%.

Biological target: Acetylcholinesterase (Homo sapiens, UniProt P22303)
Sequence (P22303 whole entry): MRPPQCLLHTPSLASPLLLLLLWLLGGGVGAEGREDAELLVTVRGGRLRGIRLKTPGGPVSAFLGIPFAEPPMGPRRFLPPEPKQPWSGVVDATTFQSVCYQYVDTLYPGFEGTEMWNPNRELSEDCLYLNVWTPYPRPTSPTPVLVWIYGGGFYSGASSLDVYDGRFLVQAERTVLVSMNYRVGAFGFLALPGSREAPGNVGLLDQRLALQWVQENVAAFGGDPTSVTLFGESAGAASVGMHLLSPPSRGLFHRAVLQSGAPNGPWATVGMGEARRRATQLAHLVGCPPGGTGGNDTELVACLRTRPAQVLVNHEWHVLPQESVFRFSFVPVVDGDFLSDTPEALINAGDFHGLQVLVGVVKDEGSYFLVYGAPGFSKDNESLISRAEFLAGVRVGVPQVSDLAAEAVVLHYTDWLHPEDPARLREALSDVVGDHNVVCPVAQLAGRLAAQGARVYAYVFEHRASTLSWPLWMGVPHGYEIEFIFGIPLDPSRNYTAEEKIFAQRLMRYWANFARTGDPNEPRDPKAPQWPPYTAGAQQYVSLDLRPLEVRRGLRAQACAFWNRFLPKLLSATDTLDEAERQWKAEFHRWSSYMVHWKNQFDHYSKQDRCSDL
Experiment: Binding affinity to CM5 sensor chip immobilized recombinant human AChE assessed as dissociation constant at 298.15 K by surface plasmon resonance assay
Details: not given
COc1cc2c(cc1OC)C(=O)C(CC1(F)CCN(Cc3ccc(F)cc3F)CC1)C2 (stereo not given) showed a Kd of 3.47 nM. Molecule COc1cc2c(cc1OC)C(=O)C(CC1(F)CCN(Cc3cccc(F)c3)CC1)C2 (stereo not given) has a Kd of 5.02 nM. For COc1cc2c(cc1OC)C(=O)C(CC1(F)CCN(Cc3ccc(F)cc3)CC1)C2 (stereo not given), the Kd was 2.78 nM. For COc1cc2c(cc1OC)C(=O)C(CC1(F)CCN(Cc3cc(F)c(F)cc3F)CC1)C2 (stereo not given), the Kd was 5.23 nM. In the case of C/C=C1\[C@H]2C=C(C)C[C@]1(N)c1ccc(=O)[nH]c1C2 [HUPERZINE A], the Kd is reported as 17 nM. With COc1cc2c(cc1OC)C(=O)C(CC1(F)CCN(Cc3ccccc3)CC1)C2 (stereo not given) the Kd was 4.61 nM.

Tested on: Mus musculus
Experiment: Cognitive enhancing effect in mouse model of scopolamine-induced memory impairment assessed as reduction in escape latency time at 8 to 12 mg/kg, IG QD for 3 days by channel water maze test
Format: functional, organism-based
Details: dose 8-12 mg/kg, time 3.0 day
With COc1cc2c(cc1OC)C(=O)C(CC1CCN(Cc3ccccc3)CC1)C2 (stereo not given) the Activity was “Active”.

Tested on: Mus musculus
Experiment: Cognitive enhancing effect in mouse model of scopolamine-induced memory impairment assessed as reduction in number of errors at 8 to 12 mg/kg, IG QD for 3 days by channel water maze test
Format: functional, organism-based
Details: dose 8-12 mg/kg, time 3.0 day
In the case of COc1cc2c(cc1OC)C(=O)C(CC1CCN(Cc3ccccc3)CC1)C2 (stereo not given), the Activity is reported as “Active”.

Tested on: not listed separately
Experiment: Solubility of the compound
Format: physicochemical
Details: not given
In the case of COc1cc2c(cc1OC)C(=O)C(CC1(F)CCN(Cc3c(F)c(F)c(F)c(F)c3F)CC1)C2 (stereo not given), the solubility is reported as “Insoluble”.
